Data from patent EP0703239A1, “Aminomethylphosphonic and aminomethylphosphinic acids derivatives and their use in the treatment of degenerative articular diseases” (priority 1994, dated 1996).

How the values were obtained:
[1] = test system: Chondrozyten; assay: Stimulation of cartilage matrix (proteoglycan) synthesis in chondrocyte agarose culture, 35S-sulfate incorporation; type: cell-based, Rinder; details: Chondrocyte, read-out: Stimulationsfaktor der Proteoglykansynthese
Text: 1. Wirksamkeit in der Synthese-Stimulierung von Knorpel-Matrix, Prüfung in der Chondrozyten-Kultur
Zellen: Den Fußgelenken frisch geschlachteter Rinder werden der hyaline Knorpel entnommen, mit Pronase (Boehringer Mannheim) und Collagenase (Sigma), die native Matrix enzymatisch abgebaut, und die Chondrozyten in 1 %iger "low melting Agarose" in 24er Multiwell-Schalen in einer Zelldichte von 4 x 10⁶ pro well ausplattiert.
Medium: Komplettes Medium enthält HAM's F12 (Biochrom KG, Berlin) und 10 % foetales Kälberserum (Boehringer Mannheim), die Testsubstanz wird in Medium gelöst, üblicherweise in einer Konzentration von 10⁻⁵ M zugegeben und bei jedem Mediumwechsel erneut zugefügt.
Versuchsdurchführung: Die Behandlung erfolgt vom dritten bis zehnten Tag der Primärkultur, am 9. […] Die dissoziative Extraktion der Proteoglykane aus der Agarose-Schicht wird mit 8M Guanidinium-Hydrochlorid und beigefügten Proteinase-Inhibitoren (Sigma) unter Schütteln bei 4° C über 24 h durchgeführt. Der Überstand wird nach Zentrifugation über eine PD 10 ®Sephadex G 25 Säule in freies und inkorporiertes Sulfat getrennt, dessen Aktivität nach Aliquotierung im β-Szintillationscounter gemessen wird.
Auswertung: Der Parameter für die Matrixproduktion der Chondrozyten ist die Menge synthetisierter Proteoglykane, gemessen als Sulfatinkorporation in cpm. Aus vier Wells pro Gruppe wird der Mittelwert errechnet. Dieser wird durch den Mittelwert der unbehandelten Kontrolle dividiert, und ergibt somit einen Stimulationsfaktor, der bei Stimulation der Matrixsynthese größer 1 ist, bei Hemmung derselben durch Substanzwirkung kleiner 1, und bei unveränderter Matrixsynthese gleich 1 ist.
Als Standard wird Diacerein eingesetzt, das unter dem Markennamen "Artodar" von der Firma Proter bzw. […] Tabelle II

[2] = test system: Matrix Metalloproteasen (MMP); assay: Inhibition of matrix metalloproteases from supernatant of PMA-induced synoviocytes, fluorogenic substrate; type: biochemical, Kaninchen
Text: 3. Inhibierung von Matrix Metalloproteasen (MMP)
Die erfindungsgemäßen Verbindungen zeigten deutliche inhibitorische Wirkungen auf proteolytische Enzyme, die sogenannten Matrix Metalloproteasen. Dies ist von großer Bedeutung, weil diese dem Fachmann an sich bekannten Enzyme am proteolytischen Abbau der intakten Knorpelmatrix entscheidend beteiligt sind.
Kaninchen Synoviocyten (HIG-82; ATCC, Rockville, Maryland, USA) werden in Nährmedium HAM'S F12 (Sigma, Deisenhofen, Deutschland, Katalog Nr. N-6760) mit 10 % fötalem Rinder Serum (Sigma, Deisenhofen, Deutschland, Katalog Nr. F-2442), zusammen mit Penicillin 100 U/ml sowie Streptomycin 100 µg/ml, kultiviert. Nach konfluentem Zellwachstum wird die MMP Expression in serumfreiem HAM'S F12 durch Zugabe von 0,3 µmol/l Phorbol-12-Myristat-13-Acetat induziert. Nach 20 h Inkubationszeit bei 37°C wird der Überstand abgenommen.
Der Überstand wird mit Trypsin (5 µg/ml) aktiviert. Nach 15 Minuten (min) bei 37°C wird die Aktivierung durch Zugabe von 1 mmol/l Phenylmethylsulfonylfluorid (PMSF) beendet und für weitere 10 min nachinkubiert. Das Gesamtvolumen des Ansatzes beträgt 210 µl.
Messung der MMP Aktivität (Lit.: C.G. Knight et al.; FEBS Lett. 296, 263 (1992)):
20 µl des obengenannten Überstandes werden 1:10 verdünnt, und mit 240 µl Puffer (0,1 Tris/HCl pH 7,5; 0,1 M NaCl; 0,01 M CaCl₂; 0,05 % Brij) gemischt. Die Prüfsubstanz wird in der angegebenen Konzentration (s. Tabelle) zugegeben. Nach einer Inkubationszeit von 15 min wird die Reaktion durch Zugabe von 20 µmol/l Fluoreszenz-Substanz ((7-Methoxycoumarin-4-yl)acetyl-pro-Leu-Gly-Leu-[3-(2',4'-dinitrophenyl)-L-2,3-diaminopropionyl]-Ala-Arg-NH₂; Bachem, Heidelberg, Deutschland, Kat. Nr.: M-1895) gestartet. Die Reaktion wird nach 30 min durch Zugabe von 10 mmol/l EDTA beendet. Das Gesamtvolumen des Ansatzes beträgt 320 µl. Als Meßparameter dienen die Fluoreszenzintensitäten bei λex: 328 nm und […]. Um die mögliche Eigenfluoreszens der Prüfsubstanzen zu berücksichtigen, werden die Fluoreszenzintensitäten von Parallel-Messungen ohne Substrat von den Messwerten mit Substrat abgezogen. Alle Operationen erfolgen bei 20°C. Im Kontrollexperiment ohne Hemmstoff wird die Fluoreszenz entsprechen 0 % Hemmung gesetzt, während völlige Auslöschung der Fluoreszenz 100 % Hemmung bedeutet.

[3] = test system: Rattenlebermikrosomen; assay: Inhibition of microsomal lipid peroxidation (malondialdehyde/thiobarbituric acid); type: biochemical, Ratte; details: rat liver microsomes, FeSO₄ start, 10 min 37°C; read-out: IC50 Mikrosomale Lipidperoxidation
Procedure: 4. Hemmung der Mikrosomalen Lipidperoxidation […]
Alle Schritte werden bei 0°C durchgeführt. Die Leber einer Ratte wird, um alles Hämoglobin zu entfernen, mit 0,9 % NaCl-Lösung gründlich gespült. Die grob zerkleinerte Leber wird dann in 10 mM Tris/HCl pH 7,4; 250 mM Saccharose (10 ml Puffer/g Leber) gepottert. Zunächst wird 5 Minuten bei 600xg zentrifugiert. Der Überstand wird dann 10 min bei 12000xg zentrifugiert und wird mit festem CaCl₂ (117,6 mg/100 ml) auf eine Konzentration von 8 mM eingestellt. Durch Zentrifugieren bei 25000 xg (15 min) wird ein Mikrosomenniederschlag gewonnen. Dieser Niederschlag wird im gleichen Volumen Puffer (10 mM Tris/HCl pH 7,4; 150 mM KCl) rehomogenisiert und erneut 15 min bei 25000 xg zentrifugiert.
Ein Testansatz besteht aus 20 µl Mikrosomen (100 mg/ml), vgl. oben, gelöst in Puffer (250 mM Tris/HCl pH 6,6, 750 mM KCl), 10 µl 50 mM MgCl₂, 10 µl 200 mM Isocitronensäure, 10 µl 4mM NADP (3,028 mg/ml Wasser), 10 µl 25 mM Niacinamid, 10 µl Isocitratdehydrogenase (1:100 verdünnt) und 20 µl Wasser oder Testsubstanz. Gestartet wird die Reaktion mit 10 µl 0,25 mM FeSO₄. Die Inkubation dauert 10 Minuten und erfolgt bei 37°C. Gestoppt wird mit 500 µl eiskalter 20 %iger Trichloressigsäure. Entstandenes Malondialdehyd wird durch Zugabe von 500 µl 0,67 %iger Thiobarbitursäure und 30 Minuten Inkubation bei 90°C in eine pinkfarbene Verbindung überführt, die bei 532 nm gemessen wird. Die Extinktion im Kontrollansatz ohne Prüfpräparat wird auf 0 % Hemmung gesetzt, während das völlige Verschwinden des Signals 100 % Hemmung bedeutet.

[4] = test system: IL-1alpha; assay: LPS-stimulated interleukin release from human mononuclear cells, ELISA (IL-1alpha); type: cell-based; details: 10 µmol/l, 20-22 h, read-out: % Hemmung der Interleukin-Freisetzung
Procedure: (§1) 5. Freisetzung von Interleukinen (insbesondere IL-1β) aus humanen mononuklearen Zellen
(§2) Die erfindungsgemäßen Verbindungen haben eine starke Hemmwirkung auf die Freisetzung von Interleukinen aus Humanzellen. Dies ist von großer pharmakologischer Bedeutung weil Interleukine die unerwünschte Degradation der Knorpelmatrix auslösen können.
(§3) 10 ml Humanblut, stabilisiert mit 1 ml 3,8 %iger Natriumcitrat-Lösung, werden mit 10 ml PM16 (Serva, Heidelberg) verdünnt und mit 15 ml Lymphoprep (Dr. Molter GmbH, Heidelberg) unterschichtet. Die Proben werden 40 Minuten bei 400 xg (1600 rpm Minifuge 2, Heraeus, Osterode) zentrifugiert (Raumtemperatur). Die mononuklearen Zellen sind als weißer Ring an der Grenze Lymphoprep/Plasma sichtbar. Dieser Ring wird mit einer Spritze vorsichtig entnommen, mit dem gleichen Volumen PM16 verdünnt und 10 Minuten bei 400 xg zentrifugiert. Der Niederschlag wird mit ∼ 10 ml RPMI 1640 (+ 300 mg/l L-Glutamin, Gibco, Eggenstein) gewaschen. Nach Resuspendieren der Zellen in ∼ 1 ml RPMI 1640 (+ 300 mg/l L-Glutamin, + 25 mM HEPES, + 100 µg/ml Streptomycin, + 100 µg/ml Penicillin) wird die Zelldichte mit einem Coulter Counter JT (Coulter Diagnostics) bestimmt und auf 5 * 10⁶/ml eingestellt. Die Zellen bestehen typischerweise aus 90 % Lymphozyten und 10 % Monozyten.
(§4) 230 µl mononukleare Zellen werden mit 10 µl Testsubstanz (10 µM in DMSO/Wasser 1/10) und 10 µl Lipopolysaccharide (500 µg gelöst in 1 ml Dimethylsulfoxid (DMSO) und vor Testbeginn 1/10 mit Wasser verdünnt, von Salmonella abortus equi, Sigma, Deisenhofen) 20-22 Stunden bei 37°C; 5 % CO₂ inkubiert. Die Proben werden in einem Eisbad auf 0°C abgekühlt und in einer Sigma-Zentrifuge zentrifugiert (2 Minuten; 2000 rpm). Aliquote des Überstandes werden mit einem kommerziell erhältlichen ELISA (Biermann, Bad Nauheim) bestimmt.

[5] = test system: TNF-alpha; assay: LPS-stimulated interleukin release from human mononuclear cells, ELISA (TNF-alpha); type: cell-based; details: 10 µmol/l, 20-22 h, read-out: % Hemmung der Interleukin-Freisetzung
Procedure: as §1, §2, §3, §4

SMILES	fold induction at 10 µM [1]	Hemmung der MMP ([2]; 30 µM) [%]	Hemmung der MMP ([2]; 100 µM) [%]	IC50 [3] [µM]	inhibition at 10 µM [4] [%]	inhibition at 10 µM [5] [%]
CCOP(=O)(OCC)C(c1cc(C(C)(C)C)c(O)c(C(C)(C)C)c1)N1CCCCC1 (stereo not drawn) [Beispiel 22]	1.2	12	34	2.45	80	86
CCOP(=O)(OCC)C(c1cc(C(C)(C)C)c(O)c(C(C)(C)C)c1)N1CCOCC1 (stereo not drawn) [Beispiel 23]				2.45	75	70
